ChEMBL document CHEMBL3137547, “Open Source Malaria Deposition 2. http://malaria.ourexperiment.org”

System: Plasmodium falciparum
Assay: OSM: Erythrocyte assay. NF54 with 3H-Hypoxanthine at 72hr time point.
Assay type: functional, organism-based

| Compound | EC50 [nM] |
| --- | --- |
| COc1ccc2ccc(Oc3cncc4nnc(-c5ccc(OC(F)F)cc5)n34)cc2n1 | 1670 |
| FC(F)Oc1ccc(-c2nnc3cncc(OCc4cccc5ccccc45)n23)cc1 | 1670 |
| FC(F)Oc1ccc(-c2nnc3cncc(Oc4cccc(Oc5ccccn5)c4)n23)cc1 | 6040 |
| FC(F)Oc1ccc(-c2nnc3cncc(Oc4ccc5nc(C(F)(F)F)ncc5c4)n23)cc1 | 2020 |
| FC(F)Oc1ccc(-c2nnc3cncc(Oc4ccc5ccsc5c4)n23)cc1 | 576 |
| Fc1ccc(CCOc2ccc3nnc(-c4ccc(OC(F)F)cc4)n3n2)cc1F | 6780 |
| Fc1ccc(CCNc2ccc3nnc(-c4ccc(OC(F)F)cc4)n3n2)cc1 | 510 |
| O=C(Cc1cccc(Cl)c1)Nc1cn2c(-c3ccc(OC(F)F)cc3)nnc2cn1 | 10000 |
| N#Cc1ccc(-c2nnc3ccc(NCCc4cccnc4)nn23)cc1 | 10000 |

Next, values leading:

| EC50 [nM] | Compound |
| --- | --- |
| 731 | Fc1ccc([C@@H]2[C@@H](Oc3cncc4nnc(-c5ccc(OC(F)F)cc5)n34)CN2C2CC2)cc1F |
| 101 | CC(O)(COc1cncc2nnc(-c3ccc(OC(F)F)cc3)n12)c1ccc(F)c(F)c1 (stereo unspecified) |
| 1460 | FC(F)Oc1ccc(-c2nnc3cncc(OCC4CCc5cc(Cl)ccc54)n23)cc1 (stereo unspecified) |
| 123 | CC(F)(COc1cncc2nnc(-c3ccc(OC(F)F)cc3)n12)c1ccc(F)c(F)c1 (stereo unspecified) |
| 65.4 | Fc1ccc(C(F)COc2cncc3nnc(-c4ccc(OC(F)F)cc4)n23)cc1F (stereo unspecified) |
| 839 | Fc1cc2ccc(Oc3cncc4nnc(-c5ccc(OC(F)F)cc5)n34)cc2cc1F |
| 173 | Fc1cc(F)c2ccc(Oc3cncc4nnc(-c5ccc(OC(F)F)cc5)n34)cc2c1 |
